Like-named read-outs stand apart in the source and are kept apart here.

From patent US20240239818A1, “COMPOUNDS AND COMPOSITIONS COMPRISING FLUOROPHORES FOR USE IN VISUALIZATION AND PURIFICATION OR MANIPULATION” (priority 2022, published 2024) come the findings set out here.

The format of data set [1] is physicochemical. How it is done: Determination of logD7.4. The log of distribution coefficients at pH 7.4 was determined in octanol-phosphate-buffered saline (PBS) using the miniaturized shake flask setup described previously.^36, 47 Briefly, 150 mL each of octanol and PBS pH 7.4 were stirred vigorously for 12-16 h. The layers were allowed to stand for at least 24 h for phase separation. The separated layers were collected and served as PBS saturated with octanol (PBS*) and octanol saturated with PBS (octanol*). Stock solutions (1 mM or 5 mM) of ligands were prepared in DMSO and diluted in PBS* to obtain 1 μM or 10 μM (3-5 mL) of the standard (std). This standard was used to prepare appropriate dilutions using octanol*, in triplicate, in 2-mL glass vials. The leftover standard was used to determine the standard concentration (Cstd). The vials were vortexed for 1 min and shaken horizontally at 700 rpm for 2 h. The vials were then shaken upright at 150 rpm for 2 h to allow the phases to separate. The octanol* layer was pipetted out, and the PBS* layer was used for further analyses. The concentrations of ligands in the standard and PBS* (CPBS*) were determined via fluorescence measurements of 200 μL of PBS* or std in 96-well plates on the Cytation 5 Multimode Plate Reader (BioTek). For Si-rhodamine containing ligands, 2-20 μL of trifluoroacetic acid was added to each well of the 96-well plate prior to the fluorescence measurements. Reported values are averages of at least two measurements. The logD7.4 was obtained as described previously using equation 2:
[formula] • where Cstd is the standard concentration in PBS, CPBS* is the concentration in PBS after partitioning, r is the dilution factor of the standard solution, VPBS* is the volume of PBS used in the partitioning, and Voctanol* is the volume of octanol used in the partitioning.

Data set [2] is described as follows: Determination of lactone-zwitterion equilibrium constant (KL-Z). Format: physicochemical. The note with it: 1:1 (v/v) dioxane:water. As to the method: Determination of KL-Z. The lactone-zwitterion equilibrium constant (KL-Z) was calculated as described previously^13, 23, 32, 45 using equation 1: […]
where εdw is the extinction coefficient of the dyes in a 1:1 (v/v) dioxane:water solvent mixture containing 0.01% (v/v) triethylamine; this dioxane water mixture was chosen to give a large range of KL-Z values,^23 and the triethylamine additive ensures the rhodamines are in the net neutral form. The εmax is the maximal extinction coefficient, measured in 0.1% (v/v) trifluoroacetic acid in 2,2,2-trifluoroethanol (TFE).

Data set [3] addresses T1, msGFP-HaloTag® fusion localized to the mitochondrial outer membrane (Rhodococcus rhodochrous, UniProt P0A3G2, A155T/A167V/A172T/A224E/C128F/C176G/D78G/E160K/E257K/H272N/K175M/K195N/L47V/L88M/N227D/S58T/T264A/Y273L/Y87F).
T1 construct: expressed in transfected cells; host or cells: HEK293T, calcium phosphate transfection
In words: HEK293T labeling and fluorescence microscopy. The note with it: for labeling of mitochondria-localized HaloTag®-msGFP fusion: live HEK293T cells, nanomolar concentration (100 nM, 1 h); for concentration at which ligand can be deployed for cellular labeling: live cells; for cellular fluorescence intensity (JF ligand/msGFP ratio): HEK293T cells, 100 nM, same imaging conditions. Format: cell-based. An excerpt:
Plasmid construction. HaloTag®, amplified from the pHTC HaloTag® CMV-neo Vector (Promega; G7711) and monomeric-superfolder green fluorescent protein (msGFP; lab stock), was fused to the mitochondrial targeting signal from OMP25,^28 interspacing flexible GS(GSS)4 linkers between each domain by PCR Splicing by Overlap Extension (SOE). This construct was subcloned into hSynapsin promoter bearing a copy of FUGW.^29 FUGW was a gift from David Baltimore (Addgene plasmid #14883; RRID: Addgene_14883).^48 This construct was designated as pF(UG) hSyn HaloTag®-TEV-4×GS-msGFP-mito.
HEK293T cell culture. HEK293T cells (ATCC) were passaged before 80% confluency by trypsinization (Corning; 25-053-CI) and trituration. The cell suspension was then plated on glass coverslips (Warner instruments; 64-0734, CS-18R17) coated with poly-D-lysine (Thermofisher; ICN10269491) and cultured in Dulbecco's Modified Eagle Medium (DMEM; ThermoFisher; 11965-118) supplemented with 10% v/v fetal bovine serum (FBS, Atlanta Biological) and penicillin/streptomycin (pen/strep; ThermoFisher; MT-30-001-CI) at 37° C. in a humidified 5% v/v CO2 environment following ATCC guidelines. These HEK293T cells were tested for mycoplasma contamination using the Universal Mycoplasma Detection Kit (ATCC; 30-1012K) and validated using Short Tandem Repeat profiling by ATCC (ATCC; 135-XV) within the previous year.
HEK293T labeling and fluorescence microscopy. […] For pulse-chase experiments, HEK293T cells were incubated with biotin-HaloTag® ligand (6; #G8281, Promega) at either 100 nM or 10 μM for 1 hour at 37° C. and chased with 100 nM of JANELIA FLUOR® (JF)549-HaloTag® ligand (2HTL). […] For imaging, the coverslips containing HEK293T cells were fixed with 4% paraformaldehyde in PBS at 37° C. for 10 min, washed with PBS (3×), and mounted on glass slides with ProLong Glass Antifade Mountant with NucBlue™ Stain (ThermoFisher; P36981). These cells were imaged using a Zeiss LSM 880 with Airyscan and a plan-apochromatic 63×/1.40 oil objective in Fast Airyscan mode. The same image acquisition settings were used for each trial and condition. Images were then processed with automatic Airyscan deconvolution settings.

T1 sequence (P0A3G2 other isoform, or with tags, fused parts or gaps with the stated changes): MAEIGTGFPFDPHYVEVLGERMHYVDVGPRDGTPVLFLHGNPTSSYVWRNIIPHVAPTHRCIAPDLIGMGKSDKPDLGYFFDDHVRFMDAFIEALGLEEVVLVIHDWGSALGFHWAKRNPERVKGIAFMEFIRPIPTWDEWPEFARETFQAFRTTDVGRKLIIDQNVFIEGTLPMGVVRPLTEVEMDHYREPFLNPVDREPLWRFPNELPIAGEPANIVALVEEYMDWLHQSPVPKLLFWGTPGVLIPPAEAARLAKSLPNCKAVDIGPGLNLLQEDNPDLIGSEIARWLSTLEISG

`C[Si]1(C)C2=CC(=[N+]3CC(C(=O)NCCOCCOCCNC(=O)CCCC[C@@H]4SC[C@@H]5NC(=O)N[C@@H]54)C3)C=CC2=C(c2cc(C(=O)NCCOCCOCCCCCCCl)ccc2C(=O)[O-])c2ccc(N3CCC3)cc21` (stereo partly shown) [compound 14, Biotin-JF646-HaloTag® ligand]: the logD7.4 in data set [1] (octanol-PBS pH 7.4) was 3.06. The molecule also showed a KL-Z in data set [2] of 0.0086. For the same molecule, in data set [3], the “labeling of mitochondria-localized HaloTag®-msGFP fusion” value is listed as “labeled the mitochondria in live cells” and the “concentration at which ligand can be deployed for cellular labeling” value is listed as 100 nM.

In data set [1] (octanol-PBS pH 7.4), `C[Si]1(C)C2=CC(=[N+]3CC(F)(C(=O)NCCOCCOCCNC(=O)CCCC[C@@H]4SC[C@@H]5NC(=O)N[C@@H]54)C3)C=CC2=C(c2cc(C(=O)NCCOCCOCCCCCCCl)ccc2C(=O)[O-])c2ccc(N3CC(F)C3)cc21` (stereo partly shown) [compound 15, Biotin-JF635-HaloTag® ligand] registered a logD7.4 of 3.6. Moreover, in data set [2], the KL-Z turned out to be 0.0032. In addition, in data set [3], the “cellular fluorescence intensity (JF ligand/msGFP ratio)” value is listed as “lower fluorescence intensity than 5HTL”, the “labeling of mitochondria-localized HaloTag®-msGFP fusion” value is “labeled the mitochondria in live cells” and the “concentration at which ligand can be deployed for cellular labeling” value was 100 nM.

As to `C[Si]1(C)c2cc(N3CC(F)C3)ccc2C2(OC(=O)c3ccc(C(=O)NCCOCCOCCCCCCCl)cc32)c2ccc(N3CC(F)C3)cc21` [5HTL, JF635-HaloTag® ligand, reference compound], in data set [1] (octanol-PBS pH 7.4), the logD7.4 is listed as 3.82. This molecule had a KL-Z in data set [2] of 0.0048. Also, in data set [3], the “labeling of mitochondria-localized HaloTag®-msGFP fusion” value is “labeled the mitochondria in live cells”.

For “Biotin-JF549-HaloTag® ligand [compound 12]”, the logD7.4 in data set [1] (pH 7.4) is on record as 0.07. In data set [2], the KL-Z was found to be 5.9. Besides, in data set [3], the “cellular fluorescence intensity (JF ligand/msGFP ratio)” value is on record as “poor labeling” and the “labeling of mitochondria-localized HaloTag®-msGFP fusion” value is on record as “did not show appreciable cellular labeling”.
